Like-named read-outs stand apart in the source and are kept apart here.
Experiments:
[1] = biological target: human growth hormone secretagogue receptor (hGHS-R1a) (Homo sapiens, UniProt Q92847); assay: Competitive radioligand binding assay (ghrelin receptor), standard method A
[2] = biological target: GHS-R1a receptor (human ghrelin receptor) (Homo sapiens, UniProt Q92847); assay: Aequorin functional assay (ghrelin receptor), standard method B; assay type: cell-based
Source text: B. Aequorin Functional Assay (Ghrelin Receptor)
See also U.S. patent application Ser. Nos. 11/149,512 and 11/149,731. (LePoul, E.; et al. J. Biomol. Screen. 2002, 7, 57-65; Bednarek, M. A.; et al. J. Med. Chem. 2000, 43, 4370-4376; Palucki, B. L.; et al. Bioorg. Med. Chem. Lett. 2001, 11, 1955-1957.) Functional activity at the gherlin receptor for representative compounds of the present invention is presented in the Examples.

human plasma = assay: Plasma protein binding, human plasma (equilibrium dialysis); assay type: in vitro ADME
Source text: J. Plasma Protein Binding
The pharmacokinetic and pharmacodynamic properties of drugs are largely a function of the reversible binding of drugs to plasma or serum proteins such as albumin and α1-acid glycoprotein. In general, only unbound drug is available for diffusion or transport across cell membranes, and for interaction at the pharmacological target. On the other hand, drugs with low plasma protein binding generally have large volumes of distribution and rapid clearance since only unbound drug is available for glomerular filtration and, in some cases, hepatic clearance. Thus, the extent of plasma protein binding can influence efficacy, distribution and elimination. The ideal range for plasma protein binding is in the range of 87-98% for most drug products.
Protein binding studies were performed using human plasma. Briefly, 96-well microplates were used to incubate various concentrations of the test article for 60 min at 37° C. Bound and unbound fractions are separated by equilibrium dialysis, where the concentration remaining in the unbound fraction is quantified by LC-MS or LC-MS-MS analysis. […].
The table below presents protein binding data for representative compounds of the present invention in both human and rat plasma.

fasted rats = assay: Gastric emptying in fasted rat model, standard method E; assay type: in vivo; details: average where repeated
Description: E. Gastric Emptying in Fasted Rat Model
To examine the effects of compounds of the invention in a model for gastroparesis, compounds were evaluated for possible effects on gastric emptying in fasted rats. This model is used to determine the potential of compounds of the invention to promote motility in fasted rats.
• 1. Overnight-fasted rats (male, Wistar, 200 g, n=5/group) were given a meal (2 mL) of methylcellulose (2%) by intragastric gavage. The meal was labeled with phenol red (0.05%). • 2. Test articles (dosed at various concentrations, typically 1, 3, 10, 30 mg/kg), vehicle and positive control (metoclopramide, a 5-HT ligand and prokinetic agent currently prescribed for the treatment of GI disorders, including gastroparesis) were administered by oral gavage immediately after the meal (time=0). • 3. […] Total phenol red remaining in the stomach was quantified by a colorimetric method at 560 nm. • 5. A 30% or more increase in gastric emptying (as compared to the vehicle control) was considered significant. • 6. One-way ANOVA, Dunnet's post-hoc statistical test was applied Results
The effects of representative compounds of the invention in the rat gastric emptying model described in standard method E are provided in the following table. In cases where an experiment was conducted multiple times, the average of the individual results is presented.

rat plasma = assay: Plasma protein binding, rat plasma; assay type: in vitro ADME
[3] = Pharmacokinetic analysis (oral bioavailability, elimination half-life) in the rat; assay type: in vivo; details: oral administration, 8 mg/kg dose, HPLC-MS
Source text: D. Pharmacokinetic Analysis of Representative Compounds of the Invention
The pharmacokinetic behavior of compound of the invention can be ascertained by methods well known to those skilled in the art. (Wilkinson, G. R. “Pharmacokinetics: The Dynamics of Drug Absorption, Distribution, and Elimination” in Goodman & Gilman's The Pharmacological Basis of Therapeutics, Tenth Edition, Hardman, J. G.; Limbird, L. E., Eds., McGraw Hill, Columbus, Ohio, 2001, Chapter 1.) The following method was used to investigate the pharmacokinetic parameters (elimination half-life, total plasma clearance, etc.) for intravenous, subcutaneous and oral administration of compounds of the present invention. See also U.S. patent application Ser. No. 11/149,512 and Ser. No. 11/149,731 and Intl. Pat. Appl. No. PCT/US2007/017905.
The table below presents oral bioavailability and elimination half-life data in the rat for representative compounds of the present invention. The parameters were determined by HPLC-MS after oral administration of an 8 mg/kg dose of the compound, except for compound 822 where a 2 mg/kg dose was used.

[4] = binding activity at the human ghrelin receptor, standard method A
[5] = functional activity at the human ghrelin receptor, standard method B (Aequorin)

GHS-R1a receptor (human ghrelin receptor), sequence (Q92847 whole entry): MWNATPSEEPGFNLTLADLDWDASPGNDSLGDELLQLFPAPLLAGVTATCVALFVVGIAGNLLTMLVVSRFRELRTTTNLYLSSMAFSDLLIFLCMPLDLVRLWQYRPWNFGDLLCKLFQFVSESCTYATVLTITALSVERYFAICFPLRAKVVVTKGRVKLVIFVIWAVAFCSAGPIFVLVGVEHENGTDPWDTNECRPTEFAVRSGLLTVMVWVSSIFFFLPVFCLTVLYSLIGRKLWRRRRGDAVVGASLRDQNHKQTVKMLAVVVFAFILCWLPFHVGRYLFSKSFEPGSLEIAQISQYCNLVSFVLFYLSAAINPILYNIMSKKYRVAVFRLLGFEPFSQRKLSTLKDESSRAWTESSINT
human growth hormone secretagogue receptor (hGHS-R1a), sequence (Q92847 whole entry): as above

CC(C)[C@@H](O)[C@H]1NC(=O)[C@@H](C)N(C)C(=O)[C@H](C2CC2)NC[C@@H](C)Oc2ccccc2CCCNC1=O [Compound 1058]
Ki [1, 4]: ≤ 100 nM | EC50 [2, 5]: ≤ 100 nM

CC1CNC(C2CC2)C(=O)N(C)C(C)C(=O)NC(Cc2ccc(O)c(F)c2)C(=O)NCCCC2CCCCC2O1 (mixture of isomers) [Compound 832]
Human Plasma Protein Binding (%) (human plasma; test concentration 3 μg/mL): 88.9% | Ki [1, 4]: ≤ 1 nM | Percent Increase in Gastric Emptying After Oral Administration (fasted rats; dose 3 mg/kg): 13% | Rat Plasma Protein Binding (%) (rat plasma; test concentration 3 μg/mL): 97.3%

C[C@@H]1CN[C@@H](C2CC2)C(=O)N(C)[C@H](C)C(=O)N[C@H](Cc2cccnc2)C(=O)NCCCc2ccccc2O1 [Compound 975]
Ki [1, 4]: ≤ 100 nM | EC50 [2, 5]: > 400 nM

CC[C@H](C)[C@@H]1NC[C@@H](C)Oc2ccccc2CCCNC(=O)[C@@H](Cc2cccnc2)NC(=O)[C@@H](C)N(C)C1=O [Compound 976]
Ki [1, 4]: ≤ 100 nM | EC50 [2, 5]: ≤ 400 nM

C[C@@H]1CN[C@@H](C2CCCCC2)C(=O)N(C)[C@H](C)C(=O)N[C@H](Cc2ccc(F)cc2)C(=O)NCCCc2ccccc2O1 [Compound 982]
Ki [1, 4]: ≤ 1 nM | EC50 [2, 5]: ≤ 50 nM

CC(C)C[C@H]1NC(=O)[C@@H](C)N(C)C(=O)[C@H](C2CC2)NC[C@@H](C)Oc2ccccc2CCCNC1=O [Compound 968]
Elimination Half-life (t1/2, rat, min) [3]: 103 min | Oral Bioavailability (rat, % F) [3]: 26 % F | Ki [1, 4]: ≤ 100 nM | EC50 [2, 5]: ≤ 400 nM

CC1CNC(C2CC2)C(=O)N(C)C(C)C(=O)NC(CC(C)(C)C)C(=O)NCCCC2CCCCC2O1 (mixture of isomers) [Compound 833]
Human Plasma Protein Binding (%) (human plasma; test concentration 3 μg/mL): 77.4% | Ki [1, 4]: ≤ 10 nM | Percent Increase in Gastric Emptying After Oral Administration (fasted rats; dose 3 mg/kg): 6% | Rat Plasma Protein Binding (%) (rat plasma; test concentration 3 μg/mL): 94.0%

CC1CNC(C2CCCCC2)C(=O)N(C)C(C)C(=O)NC(Cc2ccc(O)cc2)C(=O)NCCCC2CCCCC2O1 (mixture of isomers) [Compound 829]
Human Plasma Protein Binding (%) (human plasma; test concentration 3 μg/mL): 91.6% | Elimination Half-life (t1/2, rat, min) [3]: 45 min | Oral Bioavailability (rat, % F) [3]: 8 % F | Ki [1, 4]: ≤ 1 nM | Percent Increase in Gastric Emptying After Oral Administration (fasted rats; dose 3 mg/kg): 28%

CC(C)CC1NC(=O)C(C)N(C)C(=O)C(C2CC2)NC(C)C(C)Oc2ccccc2CCCNC1=O (stereo not shown) [Compound 819]
Human Plasma Protein Binding (%) (human plasma; test concentration 3 μg/mL): 95.2% | Elimination Half-life (t1/2, rat, min) [3]: 116 min | Oral Bioavailability (rat, % F) [3]: 12 % F | Ki [1, 4]: ≤ 10 nM | Percent Increase in Gastric Emptying After Oral Administration (fasted rats; dose 1 mg/kg): 9% | Percent Increase in Gastric Emptying After Oral Administration (fasted rats; dose 3 mg/kg): 21% | Percent Increase in Gastric Emptying After Oral Administration (fasted rats; dose 10 mg/kg): 18% | Rat Plasma Protein Binding (%) (rat plasma; test concentration 3 μg/mL): 98.2%

CC1CNC(C2CC2)C(=O)N(C)C(C)C(=O)NC(CC(C)(C)C)C(=O)NCCCc2ccccc2O1 (stereo not shown) [Compound 1043]
Ki [1, 4]: ≤ 100 nM | EC50 [2, 5]: ≤ 100 nM

CCN(CC)CCNC(=O)c1cc(Cl)c(N)cc1OC [metoclopramide]
Percent Increase in Gastric Emptying After Oral Administration (fasted rats; dose 30 mg/kg): 35%

C[C@@H]1C(=O)N[C@H](Cc2ccc(O)cc2)C(=O)NCCCc2ccc(F)c(F)c2OCCN[C@@H](C2CC2)C(=O)N1C [Compound 818]
Ki [1, 4]: ≤ 10 nM | Percent Increase in Gastric Emptying After Oral Administration (fasted rats; dose 3 mg/kg): 11%

CC(C)C[C@H]1NC(=O)[C@@H](C)N(C)C(=O)[C@H](C2CC2)NCCOc2c(F)cccc2CCCNC1=O [Compound 813]
Elimination Half-life (t1/2, rat, min) [3]: 31 min | Oral Bioavailability (rat, % F) [3]: 4 % F | Ki [1, 4]: ≤ 10 nM | Percent Increase in Gastric Emptying After Oral Administration (fasted rats; dose 3 mg/kg): 11%

C[C@@H]1CN[C@@H](C2CC2)C(=O)N(C)[C@H](C)C(=O)N[C@H]([C@H](C)c2ccc(F)cc2)C(=O)NCCCc2ccccc2O1 [Compound 1018]
Ki [1, 4]: ≤ 100 nM | EC50 [2, 5]: ≤ 400 nM

CC(C)C[C@H]1NC(=O)[C@@H](C)N(C)C(=O)[C@H](C2CC2)NC[C@H]2CCc3cccc(c3O2)CCCNC1=O [Compound 802]
Human Plasma Protein Binding (%) (human plasma; test concentration 1 μg/mL): 93.4% | Elimination Half-life (t1/2, rat, min) [3]: 160 min | Oral Bioavailability (rat, % F) [3]: 26 % F | Ki [1, 4]: ≤ 100 nM | EC50 [2, 5]: ≤ 100 nM | Percent Increase in Gastric Emptying After Oral Administration (fasted rats; dose 1 mg/kg): 12% | Percent Increase in Gastric Emptying After Oral Administration (fasted rats; dose 3 mg/kg): 11% | Percent Increase in Gastric Emptying After Oral Administration (fasted rats; dose 10 mg/kg): 26% | Rat Plasma Protein Binding (%) (rat plasma; test concentration 1 μg/mL): 99.8%

CC1CNC(C2CC2)C(=O)N(C)C(C)C(=O)NC(CC2CCCCC2)C(=O)NCCCC2CCCCC2O1 (mixture of isomers) [Compound 831]
Elimination Half-life (t1/2, rat, min) [3]: 120 min | Oral Bioavailability (rat, % F) [3]: 15 % F | Ki [1, 4]: ≤ 1 nM | Percent Increase in Gastric Emptying After Oral Administration (fasted rats; dose 3 mg/kg): 32%

C[C@@H]1CN[C@@H](C2CCCCC2)C(=O)N(C)[C@H](C)C(=O)N[C@H](Cc2ccc(O)cc2)C(=O)NCCCc2ncccc2O1 [Compound 1062]
Ki [1, 4]: ≤ 10 nM | EC50 [2, 5]: ≤ 50 nM

C[C@@H]1CN[C@@H](C2CC2)C(=O)N(C)[C@H](C)C(=O)N[C@H](Cc2ccc(O)cc2)C(=O)N[C@@H](C)CCc2ccccc2O1 [Compound 808]
Human Plasma Protein Binding (%) (human plasma; test concentration 5 μg/mL): 99.9% | Elimination Half-life (t1/2, rat, min) [3]: 238 min | Oral Bioavailability (rat, % F) [3]: 18 % F | Ki [1, 4]: ≤ 100 nM | Percent Increase in Gastric Emptying After Oral Administration (fasted rats; dose 1 mg/kg): 18% | Percent Increase in Gastric Emptying After Oral Administration (fasted rats; dose 3 mg/kg): 37% | Percent Increase in Gastric Emptying After Oral Administration (fasted rats; dose 10 mg/kg): 40% | Rat Plasma Protein Binding (%) (rat plasma; test concentration 5 μg/mL): 89.2%

CC(C)C[C@H]1NC(=O)[C@@H](C)N(C)C(=O)[C@H](C2CCCCC2)NC[C@@H](C)Oc2cccnc2CCCNC1=O [Compound 1061]
Elimination Half-life (t1/2, rat, min) [3]: 23 min | Oral Bioavailability (rat, % F) [3]: 4 % F | Ki [1, 4]: ≤ 100 nM | EC50 [2, 5]: ≤ 100 nM

C[C@@H]1C(=O)N[C@H](Cc2ccc(F)cc2)C(=O)NCCCc2cccc3c2O[C@H](CC3)CN[C@@H](C2CC2)C(=O)N1C [Compound 1009]
Ki [1, 4]: ≤ 1 nM | EC50 [2, 5]: ≤ 50 nM

C[C@@H]1CNC(=O)[C@@H](Cc2ccc(F)cc2)NC(=O)[C@@H](C)N(C)C(=O)[C@H](C2CC2)NC[C@@H](C)Oc2ccccc2C1 [Compound 1033]
Ki [1, 4]: ≤ 100 nM | EC50 [2, 5]: ≤ 100 nM

C[C@@H]1CN[C@@H](C2CC2)C(=O)N(C)[C@H](C)C(=O)N[C@H](Cc2ccc(Cl)cc2)C(=O)NCCCc2ccc(F)cc2O1 [Compound 877]
Oral Bioavailability (rat, % F) [3]: 15 % F | half-life ([3]; plasma, read-out: Elimination Half-life (t1/2, rat, min)): 255 min | Ki [1]: ≤ 100 nM | EC50 [2]: ≤ 50 nM

CC1C(=O)NC(Cc2ccc(O)cc2)C(=O)NCCCC2CCCCC2OCCNC(C2CC2)C(=O)N1C (stereo not shown) [Compound 1118]
Human Plasma Protein Binding (%) (human plasma; test concentration 3 μg/mL): 92.8% | Ki [1, 4]: ≤ 10 nM | Rat Plasma Protein Binding (%) (rat plasma; test concentration 3 μg/mL): 95.5%

Source: patent publication US10258602B2 (Ocera Therapeutics, Inc., priority 2007, dated 2019)
